US12024506B2, “Compounds” (Oxford University Innovation Limited, priority 2018, dated 2024)
Entries after “also recorded” stand apart in the source; their conditions may differ.

Experiments:
Type in all cases: cell-based
[1] = target: T1, NRASQ61H interaction with PI3K, CRAF, RALGDS (Homo sapiens, UniProt P01111, Q61H); experiment: BRET2 cell assay, NRAS Q61H-effector interaction; conditions: HEK293T cells, 5, 10 and 20 μM, 20 h
T1 construct: expressed in transfected cells; host or cells: HEK293T
Text: (§1) The BRET ratio corresponds to the light emitted by the GFP2 acceptor constructs (515 nm±30) upon addition of Coelenterazine 400a divided by the light emitted by the RLuc8 donor constructs (410 nm±80). The normalized BRET ratio is the BRET ratio normalized to the DMSO negative and calculated as follows: (BRETcompound/BRETDMSO)×100, where BRETcompound corresponds to the BRET ratio for the compound-treated cells, BRETDMSO to the DMSO-treated cells. Each experiment was repeated at least three times. Statistical analyses were performed using a one-way ANOVA followed by Dunnett's post-tests (*P<0.05, **P<0.01, ***P<0.001, ****P<0.0001). Where error bars are presented, they correspond to mean values±SD of biological repeats (a-c).
(§2) HEK293T cells were transfected 24 hr with plasmids expressing the NRAS Q61H […] and HRAS G12V (B, D) biosensors together with the indicated RBDs of PI3K, CRAF and RALGDS (A, B) or full-length CRAF. […]
(§3) 650,000 HEK293T were seeded in each well of a 6 well plate. […] The final concentrations in the cells were 0, 5, 10 and 20 µM (therefore the intermediate 10× concentrations were 0, 50, 100 and 200 μM. 10 μL of 10× compounds were added in each well of the 96 well plate to 0, 5, 10 and 20 µM final concentrations (with final 0.2% DMSO each). Quadruplicates were performed for each point. Cells were left for an additional 20 hours at 37° C. before the BRET2 signal reading directly after addition of Coelenterazine 400a substrate (10 µM final) to cells (Cayman Chemicals, cat #16157). BRET2 reading was carried out on an Envision instrument (2103 Multilabel Reader, PerkinElmer) with the BRET2 Dual Emission optical module (515 nm±30 and 410 nm±80; PerkinElmer).
(§4) The ability of Example compound 56 to inhibit RAS-effector PPI using the above cell-based RAS-effector BRET2 assay was investigated. […] We determined the effect of compound 56 (labelled Abd-7) on the interaction of KRAS^G12D and with PI3Kα and PI3Kγ, CRAF RAS-binding domain (RBD) and RALGDS RAS-associating domain (RA) compared with the low affinity Reference Compound Abd-2 FIG. 1a). […]

[2] = tested on: DLD1 cells (ATCC CCL-221); experiment: Cell viability assay 1 (CellTiter-Glo), DLD1 cells; conditions: Homo sapiens, DLD-1 cells, 48 h, second value of the cell, read-out: Cell Viability DLD-1 (concentration that decreases cell viability by 50%)
Outline: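 DLD1 cells grown in RPMI-1640 with 10% FCS, 2 mM L-glutamine, 37 °C, 5% CO2, plated overnight then exposed to compound (0.5% DMSO) for 48 h. Viability by CellTiter-Glo luminescence; value is concentration reducing viability by 50% from dose-response curves.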

[3] = target: T2, KRASG12D interaction with PI3Kα, PI3Kγ, CRAF RBD, RALGDS RA (Homo sapiens, UniProt P01116, G12D); experiment: BRET2 cell assay, KRAS G12D-effector interaction; conditions: HEK293T cells, 5, 10 and 20 μM, 20 h
T2 construct: expressed in transfected cells; host or cells: HEK293T
Text: as §1
as §3, with “plate. 24 hours later, cells were transfected with an appropriated BRET-based RAS biosensor (i.e. RAS-effector) using Lipofectamine 2000 transfection reagent (Thermo-Fisher).” for “plate.”
as §4

[4] = target: T3, HRASG12V interaction with PI3K, CRAF, RALGDS (Homo sapiens, UniProt P01112, G12V); experiment: BRET2 cell assay, HRAS G12V-effector interaction; conditions: HEK293T cells, 5, 10 and 20 μM, 20 h
T3 construct: expressed in transfected cells; host or cells: HEK293T
Text: as §1, §2, §3, §4

Effect on BRET signal, KRAS G12D/effector interactions [3] | Structure (SMILES) | Effect on BRET signal, NRAS Q61H/effector interactions [1] | IC50 [2] [µM] | Effect on BRET signal, HRAS G12V/effector interactions [4] | Effect on BRET signal, NRAS Q61H/effector interactions ([1]; formate salt) | Effect on BRET signal, KRAS G12D/effector interactions ([3]; formate salt) | Effect on BRET signal, HRAS G12V/effector interactions ([4]; formate salt)
reduces the BRET signal | COc1nc(-c2cccc3c2OCCO3)ccc1Nc1ccc(CN(C)C)cc1 [compound 56, [6-(2,3-Dihydro-benzo[1,4]dioxin-5-yl)-2-methoxy-pyridin-3-yl]-(4-dimethylaminomethyl-phenyl)-amine] | interferes with all mutant RAS family member PPIs | 8 | interferes with all mutant RAS family member PPIs |  |  | 
 | COc1cc(-c2cccc3c2OCCO3)ccc1Nc1cccc(CN(C)C)c1.O=CO [compound 72, [4-(2,3-Dihydro-benzo[1,4]dioxin-5-yl)-2-methoxy-phenyl]-(3-dimethylaminomethyl-phenyl)-amine formate salt] |  | 15.4 |  | inhibits; also recorded: disturbs the BRET2 signal in dose response manner | decreases KRAS G12D/effector domain interactions in a dose-dependent manner; also recorded: dose response reduction in BRET signal | inhibits; also recorded: disturbs the BRET2 signal in dose response manner
